Consider seven compounds from patent US20150202311A1, “Collagen-peptide complex” (Q'SAI CO., LTD., priority 2013, published 2015).

The test system of assay [1] is collagen peptide. Nature of the assay: Coprecipitation of black tea components with collagen peptide, reverse-phase chromatography. In kind it is binding, pig. Particulars: black tea A 200 ml + collagen peptide 5 g, FIG. 7B. On the procedure:
(§1) Collagen peptide (dry powder of the pig skin-derived collagen hydrolysate, the average molecular weight: 3000-5000, manufactured by Nippi, Inc.) was dissolved in water so that the specified concentration is achieved.
To black tea A (200 ml), collagen peptide (5 g) was added and mixed; the supernatant and precipitate were separated by centrifuging (10,000×g, for 10 minutes) (Example 6). To determine the components, of the black tea A before the addition of the collagen peptide (FIG. 7A), the supernatant after centrifuging (FIG. 7B), and the precipitate solubilized with SDS (FIG. 7C), were analyzed by reverse-phase chromatography (column: Cosmosil 5C18-AR-II (manufactured by Nacalai Tesque, Inc.), mobile phase: 0.1% formic acid-containing acetonitrile, detection: 215 nm, 280 nm), respectively.

Assay [2] deals with collagen peptide. Nature of the assay: Complex formability of theaflavins and epicatechin with collagen peptide (total Hyp in supernatant / complex). The assay is classed as binding, pig. Particulars: catechin 0.2 μmol in 1 ml. The method, then:
as §1
A supernatant was obtained by adding the triple volume (v/v) of ethanol to the aqueous solution and centrifuging (10,000×g, 15 min). The supernatant was hydrolyzed with hydrochloric acid (under reduced pressure, 150° C., and 1 hour). After the PITC treatment, the amount of PTC-Hyp (=the total amount of Hyp in the solution) was determined by carrying out reverse-phase chromatography (column: LiChroCART 250-4 (manufactured by Merck)). The amount of PTC-Hyp (=the amount of free Hyp) was determined by carrying out the PITC treatment/reverse-phase chromatography for the supernatant without hydrochloric acid hydrolysis.
The respective aqueous solutions of theaflavins and epicatechin (1 mg/ml) and collagen peptide aqueous solution (200 mg/ml) were prepared, and they were raised at room temperature so that the below-described contents are attained. In the test examples of the present patent application, the following reagents were used.
After mixing, the supernatant and precipitate were separated by centrifuging (8,000×g, […]). According to Method 4, the total amount of Hyp was determined for the supernatant (=“the total amount of Hyp in the supernatant”). “The total amount of Hyp in the complex” was calculated by subtracting “the total amount of Hyp in the supernatant” from the amount of collagen peptide used in the above reaction (2 mg or 10 mg).

On to `O=c1c(O)cc([C@H]2Oc3cc(O)cc(O)c3C[C@H]2O)cc2c([C@H]3Oc4cc(O)cc(O)c4C[C@H]3O)cc(O)c(O)c12` [Example 8, theaflavin], for which the “fate of black tea component in the supernatant after mixing with collagen peptide and centrifuging” value (“fate of black tea component” for short) in the assay on collagen peptide [1] is listed as “disappeared from the supernatant”. For the same compound, in the assay with collagen peptide [2] (Collagen peptide 2 mg), the “Total Hyp in the complex (%)” value was 86.5% and the “Total Hyp in the supernatant (%)” value is 13.5%. In addition, in the assay with collagen peptide [2] (Collagen peptide 10 mg), the “Total Hyp in the complex (%)” value is 83.8% and the “Total Hyp in the supernatant (%)” value is given as 16.2%.

Regarding `O=C(O[C@@H]1Cc2c(O)cc(O)cc2O[C@@H]1c1cc(=O)c(O)c2c(O)c(O)cc([C@H]3Oc4cc(O)cc(O)c4C[C@H]3O)c2c1)c1cc(O)c(O)c(O)c1` [Example 9, theaflavin-3-gallate], the “fate of black tea component” value in the assay on collagen peptide [1] is listed as “disappeared from the supernatant”. Besides, the “Total Hyp in the complex (%)” value came to 87.0% with collagen peptide [2] (Collagen peptide 2 mg) and 86.6% in the assay on collagen peptide [2] (Collagen peptide 10 mg). The “Total Hyp in the supernatant (%)” value in the assay with collagen peptide [2] (Collagen peptide 2 mg) is listed as 13.0%; with collagen peptide [2] (Collagen peptide 10 mg) it was 13.4%.

In the case of `Cn1c(=O)c2c(ncn2C)n(C)c1=O` [caffeine], the “fate of black tea component” value in the assay with collagen peptide [1] was “remained mostly in the supernatant”.

Consider `O=C(O[C@@H]1Cc2c(O)cc(O)cc2O[C@@H]1c1ccc(O)c(O)c1)c1cc(O)c(O)c(O)c1` [epicatechin gallate], for which the “fate of black tea component” value in the assay with collagen peptide [1] is “remained mostly in the supernatant”.

For the compound `O=C(O[C@@H]1Cc2c(O)cc(O)cc2O[C@@H]1c1cc(O)c(O)c(O)c1)c1cc(O)c(O)c(O)c1` [epigallocatechin gallate], the “fate of black tea component” value in the assay on collagen peptide [1] was “remained mostly in the supernatant”.

On to theaflavin-3,3′-digallate [Example 11], for which the “fate of black tea component” value with collagen peptide [1] is given as “disappeared from the supernatant”. In the assay on collagen peptide [2] (Collagen peptide 2 mg), the “Total Hyp in the complex (%)” value worked out at 98.0% and the “Total Hyp in the supernatant (%)” value was found to be 2.0%. In the assay with collagen peptide [2] (Collagen peptide 10 mg), the “Total Hyp in the complex (%)” value amounted to 97.8% and the “Total Hyp in the supernatant (%)” value came out at 2.2%.

Turning to theaflavin-3′-gallate [Example 10], in the assay with collagen peptide [1], the “fate of black tea component” value is recorded as “disappeared from the supernatant”. In the assay on collagen peptide [2] (Collagen peptide 2 mg), the “Total Hyp in the complex (%)” value worked out at 97.7% and the “Total Hyp in the supernatant (%)” value is 2.3%. In the assay on collagen peptide [2] (Collagen peptide 10 mg), the “Total Hyp in the complex (%)” value is recorded as 90.5% and the “Total Hyp in the supernatant (%)” value came out at 9.5%.
